One block for each compound: values may come before it.
Columns and labels:
[1] = molecular target: T1, human muscarinic M1 receptor (Homo sapiens, UniProt P11229); assay: Alphascreen Surefire phospho-ERK1/2 functional assay, M1; format: cell-based; conditions: for EC50 / M1 % Emax cf. ACh: CHO cells stably expressing human M1; for EC50: phospho-ERK1/2, read-out: pEC50 M1 (converted); for Emax: CHO, read-out: M1 % Emax cf. ACh, CHO cells stably expressing human M1; for Emax / M1 % Emax cf. ACh: Emax relative to ACh; for selectivity for the M1 receptor relative to the M4 receptor: M1 versus M4, in words
T1 sequence (P11229 1-460): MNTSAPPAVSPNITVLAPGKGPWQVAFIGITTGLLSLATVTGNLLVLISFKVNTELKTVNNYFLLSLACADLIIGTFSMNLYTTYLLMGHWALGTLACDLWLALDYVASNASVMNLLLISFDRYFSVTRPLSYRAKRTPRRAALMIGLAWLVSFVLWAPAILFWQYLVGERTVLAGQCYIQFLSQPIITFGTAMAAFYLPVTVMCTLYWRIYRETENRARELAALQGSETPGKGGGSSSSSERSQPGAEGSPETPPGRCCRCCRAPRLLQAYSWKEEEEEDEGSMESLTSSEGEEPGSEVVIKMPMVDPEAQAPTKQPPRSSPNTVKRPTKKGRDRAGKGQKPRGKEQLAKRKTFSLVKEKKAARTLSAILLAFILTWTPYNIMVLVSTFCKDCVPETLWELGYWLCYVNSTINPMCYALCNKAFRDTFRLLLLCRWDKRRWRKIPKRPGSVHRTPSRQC
Description: (§1) Functional assays were performed using the Alphascreen Surefire phospho-ERK1/2 assay (Crouch & Osmond, Comb. Chem. High Throughput Screen, 2008). ERK1/2 phosphorylation is a downstream consequence of both Gq/11 and Gi/o protein coupled receptor activation, making it highly suitable for the assessment of M1, M3 (Gq/11 coupled) and M2, M4 receptors (Gi/o coupled), rather than using different assay formats for different receptor subtypes. CHO cells stably expressing the human muscarinic M1, M2, M3 or M4 receptor were plated (25K/well) onto 96-well tissue culture plates in MEM-alpha+10% dialysed FBS. Once adhered, cells were serum-starved overnight. Agonist stimulation was performed by the addition of 5 μL agonist to the cells for 5 min (37° C.). Media was removed and 50 μL of lysis buffer added. After 15 min, a 4 μL sample was transferred to 384-well plate and 7 μL of detection mixture added. Plates were incubated for 2 h with gentle agitation in the dark and then read on a PHERAstar plate reader.
(§2) pEC50 and Emax figures were calculated from the resulting data for each receptor subtype.

[2] = molecular target: T2, human muscarinic M4 receptor (Homo sapiens, UniProt P08173); assay: Alphascreen Surefire phospho-ERK1/2 functional assay, M4; format: cell-based; conditions: for EC50 / M4 % Emax cf. ACh: CHO cells stably expressing human M4; for EC50: phospho-ERK1/2, read-out: pEC50 M4 (converted); for Emax: CHO, read-out: M4 % Emax cf. ACh, CHO cells stably expressing human M4; for Emax / M4 % Emax cf. ACh: Emax relative to ACh
T2 construct: expressed in transfected cells
T2 sequence (P08173 1-479): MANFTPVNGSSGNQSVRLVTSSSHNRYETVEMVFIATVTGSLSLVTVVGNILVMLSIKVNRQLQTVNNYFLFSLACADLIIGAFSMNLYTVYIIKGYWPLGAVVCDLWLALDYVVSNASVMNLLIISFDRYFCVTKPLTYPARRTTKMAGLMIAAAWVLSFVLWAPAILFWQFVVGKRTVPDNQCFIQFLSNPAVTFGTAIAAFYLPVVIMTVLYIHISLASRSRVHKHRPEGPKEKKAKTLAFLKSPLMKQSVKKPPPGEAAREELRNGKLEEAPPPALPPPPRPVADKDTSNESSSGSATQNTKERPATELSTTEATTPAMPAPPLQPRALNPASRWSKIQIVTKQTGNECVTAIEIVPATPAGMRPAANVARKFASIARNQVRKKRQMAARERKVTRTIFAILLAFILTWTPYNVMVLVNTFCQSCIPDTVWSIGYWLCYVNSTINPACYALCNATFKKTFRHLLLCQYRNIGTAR
Description: as §1, §2

- EC50 [1]: 77.6 nM
- Emax [1]: 32%
- EC50 [2]: > 20000 nM
- Emax [2]: 1%
SMILES: CCOC(=O)N[C@H]1CCN(C2CCC3(CC2)C(=O)Nc2c(C)cccc23)C1 (single isomer, unassigned) [2-3 isomer 1]

- EC50 [1]: 2090 nM
- Emax [1]: 63%
- EC50 [2]: > 20000 nM
- Emax [2]: 19%
SMILES: CCOC(=O)N[C@H]1CCN(C2CCC3(CC2)C(=O)Nc2cnc(OC)cc23)C1 (single isomer, unassigned) [2-19 isomer 1]

- EC50 [1]: 3470 nM
- Emax [1]: 40%
- EC50 [2]: 955 nM
- Emax [2]: 55%
SMILES: Cc1ccc(C2(C#N)CCC(N[C@@H]3CC[C@H](c4nc(C(F)(F)F)no4)C3)CC2)nc1 (single isomer, unassigned) [28-2 Isomer 2]

SMILES: CC#CCOC(=O)N1CCCN(C2CCC(C#N)(c3ccc(OC)cn3)CC2)CC1 (centres unmarked) [Example 3-32, but-2-yn-1-yl 4-[4-cyano-4-(5-methoxypyridin-2-yl)cyclohexyl]-1,4-diazepane-1-carboxylate]
- selectivity for the M1 receptor relative to the M4 receptor [1]: highly selective for the M1 receptor relative to the M4 receptor

- M1 % Emax cf. ACh [1]: 51%
- EC50 [1]: 562 nM
- M4 % Emax cf. ACh [2]: 15%
- EC50 [2]: > 20000 nM
SMILES: Cc1noc(C2CC3(CCN(C4CCC(C#N)(c5ccc(F)cn5)CC4)C3)C2)n1 (single isomer, unassigned) [21-3 Isomer 3]

- EC50 [1]: 38.9 nM
- Emax [1]: 39%
- EC50 [2]: > 20000 nM
- Emax [2]: 8%
SMILES: CCOC(=O)N1CC2(CCN(C3CCC4(CC3)C(=O)Nc3ccccc34)C2)C1 (mixture of isomers) [10-1 mixture of isomers]

- EC50 [1]: 813 nM
- Emax [1]: 75%
- EC50 [2]: 316 nM
- Emax [2]: 61%
SMILES: CCOC(=O)N1CCCN(C2CCC3(CC2)C(=O)Nc2ccc(OC)nc23)CC1 (single isomer, unassigned) [4-24 isomer 1]

SMILES: CCOC(=O)N[C@H]1CCN(C2CCC3(CC2)C(=O)Nc2cc(F)ccc23)C1 (stereo partly drawn) [Example 2-7, ethyl [(3S)-1-(6′-fluoro-2′-oxo-1′,2′-dihydrospiro[cyclohexane-1,3′-indol]-4-yl)pyrrolidin-3-yl]carbamate]
- selectivity for the M1 receptor relative to the M4 receptor [1]: highly selective for the M1 receptor relative to the M4 receptor

SMILES: CCOC(=O)N1CCCN(C2CCC(C#N)(c3ccc(OC)cn3)CC2)CC1 (centres unmarked) [Example 3-19, ethyl 4-[4-(5-methoxypyridin-2-yl)-4-cyanocyclohexyl]-1,4-diazepane-1-carboxylate]
- selectivity for the M1 receptor relative to the M4 receptor [1]: highly selective for the M1 receptor relative to the M4 receptor

- M1 % Emax cf. ACh [1]: 67%
- EC50 [1]: 1100 nM
- M4 % Emax cf. ACh [2]: 52%
- EC50 [2]: 380 nM
SMILES: CCOC(=O)N1CCCN(C2CCC3(CC2)C(=O)Nc2cccc(C)c23)CC1 (single isomer, unassigned) [4-8 isomer 1]

SMILES: CCOC(=O)N[C@H]1CCN(C2CCC(C#N)(c3cccc(F)c3)CC2)C1 (single isomer, unassigned) [Example 1-3]
- selectivity for the M1 receptor relative to the M4 receptor [1]: highly selective for the M1 receptor relative to the M4 receptor

SMILES: CCOC(=O)N[C@H]1CCN(C2CCC3(CC2)C(=O)Nc2cc(C)ccc23)C1 (single isomer, unassigned) [Example 2-4]
- selectivity for the M1 receptor relative to the M4 receptor [1]: highly selective for the M1 receptor relative to the M4 receptor

SMILES: CCOC(=O)N[C@H]1CCN(C2CCC3(CC2)C(=O)Nc2ccccc23)C1 (single isomer, unassigned) [Example 2-1]
- selectivity for the M1 receptor relative to the M4 receptor [1]: highly selective for the M1 receptor relative to the M4 receptor

SMILES: CCOC(=O)N[C@H]1CCN(C2CCC3(CC2)C(=O)Nc2ccc(F)cc23)C1 (stereo partly drawn) [Example 2-8, ethyl [(3S)-1-(5′-fluoro-2′-oxo-1′,2′-dihydrospiro[cyclohexane-1,3′-indol]-4-yl)pyrrolidin-3-yl]carbamate]
- selectivity for the M1 receptor relative to the M4 receptor [1]: highly selective for the M1 receptor relative to the M4 receptor

SMILES: CCOC(=O)N1CCCN(C2CCC(C#N)(c3ccc(OCC)cn3)CC2)CC1 (centres unmarked) [Example 3-20, ethyl 4-[4-cyano-4-(5-ethoxypyridin-2-yl)cyclohexyl]-1,4-diazepane-1-carboxylate]
- selectivity for the M1 receptor relative to the M4 receptor [1]: highly selective for the M1 receptor relative to the M4 receptor

SMILES: CCOC(=O)N1CCCN(C2CCC3(CC2)C(=O)Nc2ccc(OC)cc23)CC1 (centres unmarked) [Example 4-12, ethyl 4-(5′-methoxy-2′-oxo-1′,2′-dihydrospiro[cyclohexane-1,3′-indol]-4-yl)-1,4-diazepane-1-carboxylate]
- selectivity for the M1 receptor relative to the M4 receptor [1]: highly selective for the M1 receptor relative to the M4 receptor

SMILES: CCOC(=O)N[C@H]1CCN(C2CCC3(CC2)C(=O)Nc2c(C)cccc23)C1 (single isomer, unassigned) [Example 2-3]
- selectivity for the M1 receptor relative to the M4 receptor [1]: highly selective for the M1 receptor relative to the M4 receptor

SMILES: CCOC(=O)N[C@H]1CCN(C2CCC(C#N)(c3ccc(F)cc3)CC2)C1 (single isomer, unassigned) [Example 1-4]
- selectivity for the M1 receptor relative to the M4 receptor [1]: highly selective for the M1 receptor relative to the M4 receptor

SMILES: CCOC(=O)N[C@H]1CCN(C2CCC(C#N)(c3cccc(C)c3)CC2)C1 (single isomer, unassigned) [Example 1-9]
- selectivity for the M1 receptor relative to the M4 receptor [1]: highly selective for the M1 receptor relative to the M4 receptor

SMILES: CCOC(=O)N1CCCN(C2CCC3(CC2)C(=O)Nc2ccc(C)cc23)CC1 (centres unmarked) [Example 4-7, ethyl 4-(5′-methyl-2′-oxo-1′,2′-dihydrospiro[cyclohexane-1,3′-indol]-4-yl)-1,4-diazepane-1-carboxylate]
- selectivity for the M1 receptor relative to the M4 receptor [1]: highly selective for the M1 receptor relative to the M4 receptor

- EC50 [1]: 40.7 nM
- Emax [1]: 85%
SMILES: CCOC(=O)N1CCN(C2CCC(C#N)(c3ccccc3)CC2)CC(O)C1 (mixture of isomers) [3-26 mixture of isomers]

SMILES: CCOC(=O)N[C@H]1CCN(C2CCC3(CC2)C(=O)Nc2ccc(OC)cc23)C1 (single isomer, unassigned) [Example 2-10]
- selectivity for the M1 receptor relative to the M4 receptor [1]: highly selective for the M1 receptor relative to the M4 receptor

SMILES: CCOC(=O)N[C@H]1CCN(C2CCC(C#N)(c3cccc(Cl)c3)CC2)C1 (single isomer, unassigned) [Example 1-10]
- selectivity for the M1 receptor relative to the M4 receptor [1]: highly selective for the M1 receptor relative to the M4 receptor

SMILES: CCOC(=O)N[C@H]1CCN(C2CCC3(CC2)C(=O)Nc2ncc(Cl)cc23)C1 (single isomer, unassigned) [Example 2-17]
- selectivity for the M1 receptor relative to the M4 receptor [1]: highly selective for the M1 receptor relative to the M4 receptor

SMILES: CCOC(=O)N[C@H]1CCN(C2CCC(C#N)(c3ccccc3)CC2)C1 (single isomer, unassigned) [Example 1-1]
- selectivity for the M1 receptor relative to the M4 receptor [1]: highly selective for the M1 receptor relative to the M4 receptor

SMILES: C#CCOC(=O)N1CCCN(C2CCC(C#N)(c3ccc(OC)cn3)CC2)CC1 (centres unmarked) [Example 3-31, prop-2-yn-1-yl 4-[4-cyano-4-(5-methoxypyridin-2-yl)cyclohexyl]-1,4-diazepane-1-carboxylate]
- selectivity for the M1 receptor relative to the M4 receptor [1]: highly selective for the M1 receptor relative to the M4 receptor

SMILES: CCOC(=O)N[C@H]1CCN(C2CCC3(CC2)C(=O)Nc2ccc(C)cc23)C1 (single isomer, unassigned) [Example 2-5]
- selectivity for the M1 receptor relative to the M4 receptor [1]: highly selective for the M1 receptor relative to the M4 receptor

SMILES: CCOC(=O)N1CCCN(C2CCC(c3nc(CC)c(C)[nH]3)CC2)CC1 (centres unmarked) [Example 5-1, ethyl 4-[4-(4-ethyl-5-methyl-1H-imidazol-2-yl)cyclohexyl]-1,4-diazepane-1-carboxylate]
- selectivity for the M1 receptor relative to the M4 receptor [1]: highly selective for the M1 receptor relative to the M4 receptor

— patent US10759751B2, “Substituted spirocyclohexanes as muscarinic M1 receptor and/or M4 receptor agonists” (Heptares Therapeutics Limited, priority 2016, dated 2020)
